This note sets out measurements from patent US10633350B2, “Diphenyl derivatives and uses thereof” (NOVARTIS AG, priority 2017, dated 2020).

Assay [1] relates to FoxO3a. As to the kind of experiment: FoxO3a inhibition assay (GFP-FoxO3a nuclear to cytoplasmic translocation) in U2OS GFP-FoxO3a H212R reporter cells. In kind it is cell-based. The following applies: Homo sapiens, 0.5 h, serum starved overnight, 30 minutes compound treatment, ratio of nuclear to cytosolic GFP intensity, AC50 = concentration that results in 50% activation or inhibition, read-out: FoxO AC50. The procedure, abridged: (§1)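 Serum-starved (overnight) cells treated with compounds at various doses for 30 min, then fixed in 4% paraformaldehyde and stained overnight at 4 °C for pAkt S473 with Hoechst nuclear counterstain; high-content imaging. FoxO3a readout: nuclear/cytosolic GFP ratio (%); Akt readout: total cellular pAkt intensity (%); DMSO = 0% activity.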

Assay [2] relates to Akt. As to the kind of experiment: Akt activation assay (Phospho-AKT (Ser473) antibody staining) in U2OS GFP-FoxO3a H212R reporter cells. In kind it is cell-based. The following applies: Homo sapiens, 0.5 h, serum starved overnight, 30 minutes compound treatment, total cellular intensity of Phospho-Akt (Ser473) antibody staining, AC50 = concentration that results in 50% activation or inhibition. The procedure, abridged:
as §1

Each structure is given as a SMILES string.

With `Cc1nc(C(N)=O)nn1-c1ccc(Cc2ccc(-c3ccc(CN4CCC5(CC4)COC5)cc3)cc2)cc1` [Example 38-8], the figures for the AC50 in assay [1] and in assay [2] were 0.051 µM and 0.211 µM, respectively.
The corresponding values for `Cc1nc(C(N)=O)nn1-c1ccc(Cc2ccc(-c3ccc(CN4CCCC(F)(F)C4)cc3)cc2)cc1` [Example 38-9] are 0.013 µM and 0.011 µM.
In the same order, the values of `Cc1nc(C(N)=O)nn1-c1ccc(Cc2ccc(-c3ccc(CN4CCC(C)(C)CC4)cc3)cc2)cc1` [Example 38-10] are 0.175 µM and 0.397 µM.
The corresponding values for `Cc1nc(C(N)=O)nn1-c1ccc(Cc2ccc(-c3ccc(CN4CCC(CN(C)C)CC4)cc3)cc2)cc1` [Example 39-1, 1-(4-((4′-((4-((dimethylamino)methyl)piperidin-1-yl)methyl)-[1,1′-biphenyl]-4-yl)methyl)phenyl)-5-methyl-1H-1,2,4-triazole-3-carboxamide] are 0.195 µM and 0.615 µM.
Regarding `Cc1nc(C(N)=O)nn1-c1ccc(Cc2ccc(-c3ccc(CN4CCC(C(C)(C)O)CC4)cc3)cc2)cc1` [Example 39-3], the AC50 in assay [1] is 0.037 µM; in assay [2] it was 0.12 µM.
In the same order, the values of `Cc1nc(C(N)=O)nn1-c1ccc(Cc2ccc(-c3ccc(CN4CC[C@@H](O)C4)cc3)cc2)cc1` [Example 39-4] are 0.026 µM and 0.092 µM.
Take `Cc1nc(C(N)=O)nn1-c1ccc(Cc2ccc(-c3ccc(CN4CC[C@H](O)C4)cc3)cc2)cc1` [Example 39-5]: the concentration at half-maximal activity (AC50) in assay [1] was 0.008 µM; in assay [2], 0.022 µM.
In the same order, the values of `Cc1nc(C(N)=O)nn1-c1ccc(Cc2ccc(-c3ccc(CN4CCC(C)(O)CC4)cc3)cc2)cc1` [Example 39-6] are 0.009 µM and 0.005 µM.
As to `Cc1nc(C(N)=O)nn1-c1ccc(Cc2ccc(-c3ccc(CN4CCS(=O)(=O)CC4)cc3)cc2)cc1` [Example 39-32], the values for the half-maximal activity concentration (AC50) in assay [1] and in assay [2] were 0.048 µM and 0.085 µM, respectively.
The corresponding values for `Cc1nc(C(N)=O)nn1-c1ccc(Cc2ccc(-c3ccc(CN4CCC5(CCO5)CC4)cc3)cc2)cc1` [Example 39-37] are 0.081 µM and 0.27 µM.
In the same order, the values of `Cc1nc(C(N)=O)nn1-c1ccc(Cc2ccc(-c3ccc(CN4CCC[C@H]4CO)cc3)cc2)cc1` [Example 39-38] are 0.048 µM and 0.119 µM.
In the same order, the values of `Cc1cc(C(N)=O)nn1-c1ccc(Cc2ccc(-c3ccc(CN4CCC(N(C)C)CC4)cc3)cc2)cc1` [Example 40, 1-(4-((4′-((4-(dimethylamino)piperidin-1-yl)methyl)-[1,1′-biphenyl]-4-yl)methyl)phenyl)-5-methyl-1H-pyrazole-3-carboxamide] are 0.032 µM and 0.146 µM.
Turning to `Cc1nc(C(N)=O)nn1-c1ccc(Cc2ccc(-c3ccc(CC4C[C@@H]5CN(C)C[C@@H]5C4)cc3)cc2)cc1` (stereo partly drawn) [Example 41, 5-methyl-1-(4-((4′-(((3aR,6aS)-2-methyloctahydrocyclopenta[c]pyrrol-5-yl)methyl)-[1,1′-biphenyl]-4-yl)methyl)phenyl)-1H-1,2,4-triazole-3-carboxamide], the AC50 in assay [1] was determined as 0.114 µM; in assay [2], 0.091 µM.
Regarding `Cc1nc(C(N)=O)nn1-c1ccc(Cc2ccc(-c3ccc(CN4CCNCC4)cc3)cc2)cc1` [Example 45, 5-methyl-1-(4-((4′-(piperazin-1-ylmethyl)-[1,1′-biphenyl]-4-yl)methyl)phenyl)-1H-1,2,4-triazole-3-carboxamide], the AC50 was found to be 0.13 µM in assay [1] and 0.003 µM in assay [2].
For the compound `Cc1nc(C(N)=O)nn1-c1ccc(Cc2ccc(-c3ccc(C(C)(C)O)nc3)cc2)cc1` [Example 46, 1-(4-(4-(6-(2-hydroxypropan-2-yl)pyridin-3-yl)benzyl)phenyl)-5-methyl-1H-1,2,4-triazole-3-carboxamide], the AC50 came out at 0.234 µM in assay [1] and 1.16 µM in assay [2].
In the same order, the values of `Cc1nc(C(N)=O)nn1-c1ccc(Cc2ccc(-c3ccc(OC4CCN(C)CC4)cc3)cc2)cc1` [Example 47, 5-methyl-1-(4-((4′-((1-methylpiperidin-4-yl)oxy)-[1,1′-biphenyl]-4-yl)methyl)phenyl)-1H-1,2,4-triazole-3-carboxamide] are 0.093 µM and 0.099 µM.
The corresponding values for `Cc1nc(C(N)=O)nn1-c1ccc(Cc2ccc(-c3ccc(C(C)(C)CO)cc3)cc2)cc1` [Example 48, 1-(4-((4′-(1-hydroxy-2-methylpropan-2-yl)-[1,1′-biphenyl]-4-yl)methyl)phenyl)-5-methyl-1H-1,2,4-triazole-3-carboxamide] are 0.051 µM and 0.16 µM.
In the same order, the values of `Cc1nc(C(N)=O)nn1-c1ccc(Cc2ccc(N3CCC(C(C)(C)O)CC3)cc2)cc1` [Example 49, 1-(4-(4-(4-(2-hydroxypropan-2-yl)piperidin-1-yl)benzyl)phenyl)-5-methyl-1H-1,2,4-triazole-3-carboxamide] are 0.273 µM and 0.84 µM.
As to `Cc1nc(C(N)=O)nn1-c1ccc(Cc2ccc(-c3ccc(S(=O)(=O)NCC(C)(C)O)cc3)cc2)cc1` [Example 50, 1-(4-((4′-(N-(2-hydroxy-2-methylpropyl)sulfamoyl)-[1,1′-biphenyl]-4-yl)methyl)phenyl)-5-methyl-1H-1,2,4-triazole-3-carboxamide], the AC50 in assay [1] is 0.036 µM; in assay [2], 0.117 µM.
In the same order, the values of `Cc1nc(C(N)=O)nn1-c1ccc(Cc2ccc(-c3ccc(C(=O)NCC(C)(C)O)cc3)cc2)cc1` [Example 51, 1-(4-((4′-((2-hydroxy-2-methylpropyl)carbamoyl)-[1,1′-biphenyl]-4-yl)methyl)phenyl)-5-methyl-1H-1,2,4-triazole-3-carboxamide] are 0.102 µM and 0.3 µM.
In the same order, the values of `Cc1nc(C(N)=O)nn1-c1ccc(Cc2ccc(-c3ccc(S(=O)(=O)NCC(C)(C)O)cn3)cc2)cc1` [Example 52, 1-(4-(4-(5-(N-(2-hydroxy-2-methylpropyl)sulfamoyl)pyridin-2-yl)benzyl)phenyl)-5-methyl-1H-1,2,4-triazole-3-carboxamide] are 0.106 µM and 0.749 µM.
The corresponding values for `Cc1nc(C(N)=O)nn1-c1ccc(Cc2ccc(-c3cc(C(C)(C)O)ccn3)cc2)cc1` [Example 53, 1-(4-(4-(4-(2-hydroxypropan-2-yl)pyridin-2-yl)benzyl)phenyl)-5-methyl-1H-1,2,4-triazole-3-carboxamide] are 2.42 µM and 8.23 µM.
Regarding `Cc1nc(C(N)=O)nn1-c1ccc(Cc2ccc(C#CC3CCN(C)CC3)cc2)cc1` [Example 54, 5-methyl-1-(4-(4-((1-methylpiperidin-4-yl)ethynyl)benzyl)phenyl)-1H-1,2,4-triazole-3-carboxamide], the AC50 in assay [1] was 0.248 µM; in assay [2], 0.528 µM.
The corresponding values for `Cc1nc(C(N)=O)nn1-c1ccc(Cc2ccc(C#CC3(O)CCCCC3)cc2)cc1` [Example 55, 1-(4-(4-((1-hydroxycyclohexyl)ethynyl)benzyl)phenyl)-5-methyl-1H-1,2,4-triazole-3-carboxamide] are 0.096 µM and 1.29 µM.
In the same order, the values of `Cc1nc(C(N)=O)nn1-c1ccc(Cc2ccc(-c3ccc(C(C)(C)CO)cn3)cc2)cc1` [Example 56, 1-(4-(4-(5-(1-hydroxy-2-methylpropan-2-yl)pyridin-2-yl)benzyl)phenyl)-5-methyl-1H-1,2,4-triazole-3-carboxamide] are 0.156 µM and 0.366 µM.
